Measured values as given in ChEMBL document CHEMBL1201862, “PubChem BioAssay data set” (2004).
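Five concentrations, 48 hours, 96-well plates. Here, GI50 denotes the concentration required for 50% inhibition of growth.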 Activity calls are given as the source filed them. No stated cut-off is given here; in the data, active = GI50 up to about 1.1 µM and inactive = higher.

What was measured:
Assay in all cases: NCI-60 cell line screen, 48 h
786-0 = tested on: 786-0
A498 = tested on: A498
A549 = tested on: A549
ACHN = tested on: ACHN
BT-549 = tested on: BT-549
CCRF-CEM = tested on: CCRF-CEM
COLO 205 = tested on: COLO 205
DU-145 = tested on: DU-145
EKVX = tested on: EKVX
HCC 2998 = tested on: HCC 2998
HCT-116 = tested on: HCT-116
HCT-15 = tested on: HCT-15
HL-60 = tested on: HL-60
HOP-62 = tested on: HOP-62
HOP-92 = tested on: HOP-92
HT-29 = tested on: HT-29
Hs-578T = tested on: Hs-578T
IGROV-1 = tested on: IGROV-1
K562 = tested on: K562
KM12 = tested on: KM12
LOX IMVI = tested on: LOX IMVI
M14 = tested on: M14
MCF7 = tested on: MCF7
MDA-MB-231 = tested on: MDA-MB-231
MDA-MB-435 = tested on: MDA-MB-435
MDA-N = tested on: MDA-N
MOLT-4 = tested on: MOLT-4
Malme-3M = tested on: Malme-3M
NCI-H226 = tested on: NCI-H226
NCI-H23 = tested on: NCI-H23
NCI-H460 = tested on: NCI-H460
NCI-H522 = tested on: NCI-H522
NCI/ADR-RES = tested on: NCI/ADR-RES
OVCAR-3 = tested on: OVCAR-3
OVCAR-4 = tested on: OVCAR-4
OVCAR-5 = tested on: OVCAR-5
OVCAR-8 = tested on: OVCAR-8
PC-3 = tested on: PC-3
RPMI-8226 = tested on: RPMI-8226
RXF 393 = tested on: RXF 393
SF-268 = tested on: SF-268
SF-295 = tested on: SF-295
SF-539 = tested on: SF-539
SK-MEL-28 = tested on: SK-MEL-28
SK-MEL-2 = tested on: SK-MEL-2
SK-MEL-5 = tested on: SK-MEL-5
SK-OV-3 = tested on: SK-OV-3
SN12C = tested on: SN12C
SNB-19 = tested on: SNB-19
SNB-75 = tested on: SNB-75
SR = tested on: SR
SW-620 = tested on: SW-620
T47D = tested on: T47D
TK-10 = tested on: TK-10
U-251 = tested on: U-251
UACC-257 = tested on: UACC-257
UACC-62 = tested on: UACC-62
UO-31 = tested on: UO-31

Structure (SMILES): O=C1c2cc3c(cc2CC12Cc1cc4c(cc1C2=O)CCCC4)CCCC3
- GI50 (786-0): 21.1 µM (inactive)
- GI50 (A498): > 100 µM (inactive)
- GI50 (A549): 59.2 µM (inactive)
- GI50 (ACHN): 62.1 µM (inactive)
- GI50 (BT-549): 56.4 µM (inactive)
- GI50 (CCRF-CEM): > 100 µM (inactive)
- GI50 (COLO 205): > 100 µM (inactive)
- GI50 (DU-145): 66.1 µM (inactive)
- GI50 (EKVX): > 100 µM (inactive)
- GI50 (HCC 2998): > 100 µM (inactive)
- GI50 (HCT-116): 62.7 µM (inactive)
- GI50 (HCT-15): > 100 µM
- GI50 (HL-60): 34.9 µM (inactive)
- GI50 (HOP-62): 24.2 µM (inactive)
- GI50 (HOP-92): 18.9 µM (inactive)
- GI50 (HT-29): > 100 µM (inactive)
- GI50 (Hs-578T): 28.3 µM (inactive)
- GI50 (IGROV-1): 71 µM (inactive)
- GI50 (K562): 78.5 µM (inactive)
- GI50 (KM12): > 100 µM (inactive)
- GI50 (LOX IMVI): > 100 µM (inactive)
- GI50 (M14): 65.2 µM (inactive)
- GI50 (MCF7): > 100 µM (inactive)
- GI50 (MDA-MB-231): 22.1 µM (inactive)
- GI50 (MDA-MB-435): > 100 µM (inactive)
- GI50 (MDA-N): > 100 µM (inactive)
- GI50 (MOLT-4): > 100 µM (inactive)
- GI50 (Malme-3M): > 100 µM (inactive)
- GI50 (NCI-H226): > 100 µM (inactive)
- GI50 (NCI-H23): 33.3 µM (inactive)
- GI50 (NCI-H460): 25.6 µM (inactive)
- GI50 (NCI-H522): > 100 µM (inactive)
- GI50 (NCI/ADR-RES): 24.6 µM (inactive)
- GI50 (OVCAR-3): 23.7 µM (inactive)
- GI50 (OVCAR-4): 18.1 µM (inactive)
- GI50 (OVCAR-5): > 100 µM (inactive)
- GI50 (OVCAR-8): > 100 µM (inactive)
- GI50 (PC-3): 40.2 µM (inactive)
- GI50 (RPMI-8226): > 100 µM (inactive)
- GI50 (RXF 393): 16.4 µM (inactive)
- GI50 (SF-268): 29.3 µM (inactive)
- GI50 (SF-295): 23.2 µM (inactive)
- GI50 (SF-539): 52.2 µM (inactive)
- GI50 (SK-MEL-28): > 100 µM (inactive)
- GI50 (SK-MEL-2): 75.9 µM (inactive)
- GI50 (SK-MEL-5): 46.5 µM (inactive)
- GI50 (SK-OV-3): 70 µM (inactive)
- GI50 (SN12C): 56.2 µM (inactive)
- GI50 (SNB-19): 33.8 µM (inactive)
- GI50 (SNB-75): 17.9 µM (inactive)
- GI50 (SR): 37.1 µM (inactive)
- GI50 (SW-620): > 100 µM (inactive)
- GI50 (T47D): 18.5 µM (inactive)
- GI50 (TK-10): 31.8 µM (inactive)
- GI50 (U-251): 30.8 µM (inactive)
- GI50 (UACC-257): 10.9 µM (inactive)
- GI50 (UACC-62): 58.2 µM (inactive)
- GI50 (UO-31): > 100 µM (inactive)
